ChEMBL document CHEMBL1201862, “PubChem BioAssay data set” (2004)
The source made the active and inactive calls.

Experiments:
[1] = inhibitors of firefly luciferase expression or activity, dose response, H4 neuroglioma cells, luminescence (AID 1990); assay type: functional, cell-based
[2] = Luminescence Cell-Based Dose Response HTS to Identify Inhibitors of 5'UTR Stem-Loop Driven Prion Protein mRNA Translation in H4 Neuroglioblastoma Cells. [Related pubchem assays: 1827 (Project Summary), 1813 (Primary HTS)]; assay type: functional
[3] = inhibitors of SNCA 5'UTR-driven reporter translation, confirmation, H4 neuroglioma cells, luminescence (AID 1988); assay type: functional, cell-based
HEK293 [4] = experiment: cells; conditions: Homo sapiens
HEK293 [5] = experiment: cells; conditions: Homo sapiens; remark: listed apart in the source
[6] = insulin promoter down-regulators in MIN6 cells, imaging, high-content screening, mouse beta cells (AID 1628); assay type: functional
[7] = cytotoxicity in MIN6 insulinoma cells, dose response, cytotoxicity control, cell-based, mouse insulinoma (AID 2122); assay type: functional;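 note: confirmatory high-throughput counterscreen run to flag cytotoxic compounds; mouse MIN-6 beta cells carrying an insulin promoter eGFP reporter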
[8] = inhibitors of intracellular T. cruzi replication, confirmation, NIH3T3 host cells, beta-gal luminescence (AID 2044); assay type: functional, cell-based;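 note: intracellular parasites grown in NIH/3T3 mouse fibroblasts as host cells; luminescent beta-galactosidase reporter signal from transgenic T. cruzi replicating inside host cells; inhibitors lower the luminescence signal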
[9] = cytotoxicity toward NIH3T3 fibroblasts, dose response, counter-screen, cell-based, ATP luminescence, mouse fibroblasts (AID 2010); assay type: functional;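 note: cells exposed to compound for about 90 hours before reading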
[10] = NIH-3T3 fibroblast cytotoxicity, dose response, cytotoxicity control, cell-based, fluorescence, Alamar Blue, secondary assay (AID 2327); assay type: functional;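 note: NIH-3T3 mouse fibroblasts cultured with fluconazole at 8 µg/mL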
Exodeoxyribonuclease V = target: T1, Exodeoxyribonuclease V (Escherichia coli (strain K12), UniProt P04993+P07648+P08394); experiment: E. coli RecBCD inhibitors, dose response, counter-screen for AddAB inhibitor project, absorbance, V66 E. coli, mutant T4 phage (AID 492957); assay type: functional, cell-based, Escherichia coli str. K-12 substr. MG1655
T1 sequence (P04993 whole entry): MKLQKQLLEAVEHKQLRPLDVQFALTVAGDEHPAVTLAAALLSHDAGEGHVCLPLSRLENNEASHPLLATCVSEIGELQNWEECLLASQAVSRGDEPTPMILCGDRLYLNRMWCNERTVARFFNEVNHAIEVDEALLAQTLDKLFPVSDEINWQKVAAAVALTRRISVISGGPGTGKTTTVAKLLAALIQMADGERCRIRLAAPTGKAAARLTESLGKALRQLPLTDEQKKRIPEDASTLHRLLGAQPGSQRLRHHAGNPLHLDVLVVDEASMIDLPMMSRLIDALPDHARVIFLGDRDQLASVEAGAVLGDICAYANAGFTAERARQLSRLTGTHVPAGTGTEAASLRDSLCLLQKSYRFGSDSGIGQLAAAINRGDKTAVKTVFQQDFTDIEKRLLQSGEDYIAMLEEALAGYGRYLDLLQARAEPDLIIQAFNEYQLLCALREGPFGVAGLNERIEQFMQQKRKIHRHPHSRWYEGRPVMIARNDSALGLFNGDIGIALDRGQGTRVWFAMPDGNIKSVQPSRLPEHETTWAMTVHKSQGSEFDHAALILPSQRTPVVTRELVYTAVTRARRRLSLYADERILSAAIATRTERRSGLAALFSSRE
T1 sequence (P07648 whole entry): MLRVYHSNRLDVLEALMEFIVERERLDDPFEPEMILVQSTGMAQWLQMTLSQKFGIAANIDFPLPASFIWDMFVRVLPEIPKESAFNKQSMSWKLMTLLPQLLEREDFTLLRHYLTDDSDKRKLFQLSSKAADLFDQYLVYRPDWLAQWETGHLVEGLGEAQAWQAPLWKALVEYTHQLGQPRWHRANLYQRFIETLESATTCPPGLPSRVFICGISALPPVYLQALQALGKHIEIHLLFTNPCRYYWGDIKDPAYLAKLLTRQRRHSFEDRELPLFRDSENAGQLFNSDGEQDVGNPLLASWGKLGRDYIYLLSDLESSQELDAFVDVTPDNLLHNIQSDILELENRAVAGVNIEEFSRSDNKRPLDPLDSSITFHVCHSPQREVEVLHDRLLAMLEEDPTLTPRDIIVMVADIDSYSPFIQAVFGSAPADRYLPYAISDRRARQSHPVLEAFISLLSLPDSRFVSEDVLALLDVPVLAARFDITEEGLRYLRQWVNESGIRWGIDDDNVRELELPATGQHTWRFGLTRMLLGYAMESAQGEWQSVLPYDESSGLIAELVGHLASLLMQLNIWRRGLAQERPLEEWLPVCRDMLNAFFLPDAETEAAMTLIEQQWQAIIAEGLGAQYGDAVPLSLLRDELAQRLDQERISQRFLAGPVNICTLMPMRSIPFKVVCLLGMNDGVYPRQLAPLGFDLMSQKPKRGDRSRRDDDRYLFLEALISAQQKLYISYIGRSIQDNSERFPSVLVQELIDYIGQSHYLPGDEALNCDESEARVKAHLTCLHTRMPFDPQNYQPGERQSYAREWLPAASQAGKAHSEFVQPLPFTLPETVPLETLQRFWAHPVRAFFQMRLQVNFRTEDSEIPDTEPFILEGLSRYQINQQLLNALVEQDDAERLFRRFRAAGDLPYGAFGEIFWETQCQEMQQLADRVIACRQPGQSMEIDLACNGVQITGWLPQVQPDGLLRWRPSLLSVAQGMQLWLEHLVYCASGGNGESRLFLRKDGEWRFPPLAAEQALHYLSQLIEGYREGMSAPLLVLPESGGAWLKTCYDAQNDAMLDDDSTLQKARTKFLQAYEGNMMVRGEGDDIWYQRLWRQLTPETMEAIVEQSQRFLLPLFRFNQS
T1 sequence (P08394 whole entry): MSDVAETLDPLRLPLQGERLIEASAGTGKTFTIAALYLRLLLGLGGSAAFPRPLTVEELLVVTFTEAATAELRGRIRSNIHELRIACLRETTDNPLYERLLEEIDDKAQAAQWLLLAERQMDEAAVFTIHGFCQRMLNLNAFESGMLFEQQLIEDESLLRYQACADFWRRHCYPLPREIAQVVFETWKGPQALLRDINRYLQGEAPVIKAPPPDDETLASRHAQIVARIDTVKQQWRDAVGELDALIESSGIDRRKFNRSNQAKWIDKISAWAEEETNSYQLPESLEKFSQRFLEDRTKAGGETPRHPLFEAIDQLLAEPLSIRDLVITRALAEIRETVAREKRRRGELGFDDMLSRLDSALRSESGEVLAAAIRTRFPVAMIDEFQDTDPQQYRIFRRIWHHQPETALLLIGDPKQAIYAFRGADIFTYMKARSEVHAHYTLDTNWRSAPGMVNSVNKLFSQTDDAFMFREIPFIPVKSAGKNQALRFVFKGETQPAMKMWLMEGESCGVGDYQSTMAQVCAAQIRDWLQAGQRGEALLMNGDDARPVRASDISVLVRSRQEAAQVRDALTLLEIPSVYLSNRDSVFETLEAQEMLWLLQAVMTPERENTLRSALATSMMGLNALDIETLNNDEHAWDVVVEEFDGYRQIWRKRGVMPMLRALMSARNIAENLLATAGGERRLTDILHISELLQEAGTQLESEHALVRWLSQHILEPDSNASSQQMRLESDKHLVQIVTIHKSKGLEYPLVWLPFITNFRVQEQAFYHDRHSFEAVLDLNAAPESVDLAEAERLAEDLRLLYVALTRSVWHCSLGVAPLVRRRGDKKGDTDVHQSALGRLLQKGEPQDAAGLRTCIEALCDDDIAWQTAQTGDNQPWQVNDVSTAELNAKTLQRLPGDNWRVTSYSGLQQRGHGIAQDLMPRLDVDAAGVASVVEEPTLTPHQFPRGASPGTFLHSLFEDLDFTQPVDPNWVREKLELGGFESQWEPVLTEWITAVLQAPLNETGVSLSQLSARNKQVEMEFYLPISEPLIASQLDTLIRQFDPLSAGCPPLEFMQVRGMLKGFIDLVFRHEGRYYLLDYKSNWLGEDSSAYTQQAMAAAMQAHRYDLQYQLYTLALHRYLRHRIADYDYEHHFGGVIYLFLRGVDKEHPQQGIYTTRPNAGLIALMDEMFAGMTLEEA

[11] = Counterscreen for AddAB inhibitors: absorbance-based bacterial cell-based high throughput dose response assay for inhibitors of bacterial viability. [Related pubchem assays (depositor defined):AID435030, AID449728, AID449731, AID488942, AID488955, AID488956]; assay type: functional
Albumin = Albumin (Bos taurus, UniProt P02769); experiment: Counterscreen for inhibitors of T-cell receptor (TCR)-CD3 interaction: Fluorescence-based biochemical high throughput dose response assay to identify inhibitors of T-cell receptor (TCR)-CD3 interaction using a TAMRA-labeled BSA probe.; assay type: functional
Albumin, sequence (P02769 whole entry): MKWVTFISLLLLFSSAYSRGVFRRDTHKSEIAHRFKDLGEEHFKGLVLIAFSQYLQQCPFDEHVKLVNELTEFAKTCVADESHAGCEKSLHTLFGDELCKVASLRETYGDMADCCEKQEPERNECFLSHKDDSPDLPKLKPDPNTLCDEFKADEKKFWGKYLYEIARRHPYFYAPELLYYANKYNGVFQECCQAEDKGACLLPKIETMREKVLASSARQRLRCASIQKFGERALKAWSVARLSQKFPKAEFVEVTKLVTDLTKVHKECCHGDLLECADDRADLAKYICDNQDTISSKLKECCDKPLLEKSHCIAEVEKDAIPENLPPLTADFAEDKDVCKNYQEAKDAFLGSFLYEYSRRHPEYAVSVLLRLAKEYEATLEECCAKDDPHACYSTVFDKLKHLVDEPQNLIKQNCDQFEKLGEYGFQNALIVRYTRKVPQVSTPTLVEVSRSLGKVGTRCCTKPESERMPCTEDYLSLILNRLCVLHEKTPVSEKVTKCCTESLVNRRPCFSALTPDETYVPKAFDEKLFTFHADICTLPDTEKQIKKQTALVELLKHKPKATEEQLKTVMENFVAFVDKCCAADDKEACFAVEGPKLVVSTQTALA

cells [12] = assay type: functional, cell-based
cells [13] = assay type: functional, cell-based; remark: listed apart in the source
[14] = Luminescence Cell-Based Dose Retest to Confirm Inhibitors of Cancer Stem Cells. [Related pubchem assays (depositor defined):AID2717, AID2721]; assay type: functional; conditions: Homo sapiens
INS1 = experiment: beta cell apoptosis inhibitors, cytokine rescue, dose response, luminescence, retest (AID 449756); assay type: functional, cell-based; conditions: Rattus norvegicus;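 note: cell death triggered by IL-1 beta plus TNF-alpha plus IFN-gamma mixture; protective hits raise ATP signal compared with cytokine alone wells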
[15] = target: T2, Heat shock factor protein 1 (Mus musculus, UniProt P38532); experiment: inhibition of MG132-induced HSE-luciferase signal, confirmation, cell-based, NIH3T3, luminescence, dose retest (AID 2382); assay type: functional;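 note: NIH3T3 fibroblasts with HSF1-driven luciferase reporter stressed by proteasome inhibitor MG132; luminescence from HSF1-driven luciferase expression after 8 hours of MG132 stress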
T2 sequence (P38532 whole entry): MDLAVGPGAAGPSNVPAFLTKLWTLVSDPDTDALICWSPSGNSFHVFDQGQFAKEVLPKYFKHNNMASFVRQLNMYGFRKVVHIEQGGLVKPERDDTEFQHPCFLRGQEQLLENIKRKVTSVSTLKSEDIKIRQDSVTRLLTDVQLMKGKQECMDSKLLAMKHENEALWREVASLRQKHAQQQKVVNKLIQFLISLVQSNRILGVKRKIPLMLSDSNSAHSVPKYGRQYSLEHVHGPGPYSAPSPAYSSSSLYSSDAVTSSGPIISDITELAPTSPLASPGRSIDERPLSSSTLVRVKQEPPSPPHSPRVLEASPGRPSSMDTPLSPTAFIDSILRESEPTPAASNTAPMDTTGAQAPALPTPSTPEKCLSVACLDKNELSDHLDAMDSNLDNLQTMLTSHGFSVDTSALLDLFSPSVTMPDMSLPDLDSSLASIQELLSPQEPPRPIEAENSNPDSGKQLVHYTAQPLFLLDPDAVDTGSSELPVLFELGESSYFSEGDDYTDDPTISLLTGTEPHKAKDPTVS

Estrogen receptor beta = Estrogen receptor beta (Homo sapiens, UniProt Q92731);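 note: recombinant ER-beta bound to coactivator SRC1 peptide in presence of estradiol agonist; inhibitors block coactivator peptide binding and lower the FRET signal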
Estrogen receptor beta, sequence (Q92731 whole entry, the tested form may be a part): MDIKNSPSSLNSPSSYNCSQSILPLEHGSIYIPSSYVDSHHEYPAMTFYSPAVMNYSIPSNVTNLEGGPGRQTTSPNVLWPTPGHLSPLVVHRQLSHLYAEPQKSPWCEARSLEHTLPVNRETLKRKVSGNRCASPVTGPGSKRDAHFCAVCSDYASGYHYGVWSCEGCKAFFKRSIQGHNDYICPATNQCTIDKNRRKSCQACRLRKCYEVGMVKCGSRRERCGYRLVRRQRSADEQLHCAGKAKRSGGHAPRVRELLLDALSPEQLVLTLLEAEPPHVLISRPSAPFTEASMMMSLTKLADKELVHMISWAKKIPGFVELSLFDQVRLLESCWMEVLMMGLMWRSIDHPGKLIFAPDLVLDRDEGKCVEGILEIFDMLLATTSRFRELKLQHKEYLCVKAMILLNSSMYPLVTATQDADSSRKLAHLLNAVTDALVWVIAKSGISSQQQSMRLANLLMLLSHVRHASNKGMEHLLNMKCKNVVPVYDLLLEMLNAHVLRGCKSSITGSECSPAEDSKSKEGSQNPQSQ

[16] = Fluorescence-based cell-based high throughput dose response assay for inhibitors of the interaction of nucleotide-binding oligomerization domain containing 2 (NOD2) and the receptor-interacting serine-threonine kinase 2 (RIPK2).; assay type: functional; conditions: Homo sapiens

Q: Which results are given for `C/C=C/CSc1nc2c(c(=O)[nH]c(=O)n2C)n1Cc1ccc(C)cc1`?
A: EC50 [1]: 21.2 µM (active); EC50 [2]: > 120 µM (not active); EC50 [3]: 21.4 µM (active); EC50 (HEK293 [4]): > 59.6 µM (inactive); EC50 (HEK293 [5]): > 59.6 µM (inactive)

Q: Which results are given for `CC1(c2ccc([N+](=O)[O-])cc2)CC(C)(C)N(C(=O)c2ccccc2)c2ccccc21` (stereo not given)?
A: IC50 [6]: 7.17 µM (active); IC50 [7]: 7.16 µM (active)

Q: For `CCN(CC)C1=CC(=[N+]2CCCC2)CC(C)(C)C1`, which IC50 [6] is on record?
A: Its IC50 is < 0.25 µM (active).

Q: And the IC50 [7]?
A: Its IC50 is < 0.25 µM (active).

Q: And the EC50 [8]?
A: The EC50 was 0.732 µM (active).

Q: What about the EC50 [9] of the same compound?
A: The EC50 was > 60 µM (inconclusive).

Q: Which EC50 [10] does the source give for `COc1ccccc1NC(=O)NNC(=O)c1cc2ccccc2cc1O` here?
A: The EC50 was > 160 µM (inactive).

Q: What about the IC50 (Exodeoxyribonuclease V) of the same compound?
A: Its IC50 is > 119 µM (inactive).

Q: What about the IC50 [11] of the same compound?
A: The IC50 was > 119 µM (inactive).

Q: And the IC50 (Albumin)?
A: The IC50 was > 94.1 µM (inactive).

Q: Which results are given for `Cc1cc([N+](=O)[O-])nn1Cc1ccc(C(=O)N/N=C/c2ccc(O)cc2O)cc1`?
A: EC50 (cells [12]): 9.79 µM (active); EC50 (cells [13]): > 350 µM (not active); IC50 (Exodeoxyribonuclease V): > 119 µM (inactive); AC50 [14]: 1.71 µM (active); IC50 [11]: > 119 µM (inactive); AC50 (INS1): 1.37 µM (active)

Q: Which IC50 [6] does the source give for `CCN1CCN(S(=O)(=O)c2cc(OCC(=O)NC3CCCCC3)c(C)cc2Cl)CC1` here?
A: The IC50 was 2.29 µM (active).

Q: And the IC50 [7]?
A: The IC50 was 2.03 µM (active).

Q: Which results are given for `CCc1ccc(C(=O)Cn2ncc(Cl)c(Cl)c2=O)cc1`?
A: EC50 [15]: 5.77 µM (active); EC50 [8]: 2.19 µM (active); IC50 (Estrogen receptor beta): > 50 µM (not active); EC50 [9]: 4.03 µM (active); IC50 [16]: 3.38 µM (active); EC50 (HEK293 [4]): > 59.6 µM (inactive); EC50 (HEK293 [5]): > 59.6 µM (inactive)
